Here are results for 10 compounds from patent publication US20220242856A1, “CANNABINOID DERIVATIVES” (CANOPY GROWTH CORPORATION, priority 2019, published 2022).

SMILES strings stand for the structures. Some results are limits rather than exact numbers.

The target in assay [1] is T1, human CB1 receptor (Homo sapiens, UniProt P21554).
T1 construct: host or cells: CHO-K1
Briefly: CB1 radioligand competitive binding assay ([3H]CP 55,940 displacement). Particulars: for Selectivity CB1: fold difference in selectivity between CB1 and CB2 binding, printed in the column of the receptor with higher affinity, 1.00 = about the same affinity.

Another assay addresses T2, human CB2 receptor (Homo sapiens, UniProt P34972).
T2 construct: host or cells: CHO-K1
Description: CB2 radioligand competitive binding assay ([3H]CP 55,940 displacement). The settings on record: for Selectivity CB2: fold difference in selectivity between CB1 and CB2 binding, printed in the column of the receptor with higher affinity, 1.00 = about the same affinity. The protocol: Compounds of the present disclosure were tested for CB1 receptor binding affinity and for CB2 receptor binding affinity. As used herein, “binding affinity” is represented by the IC50 value, which was experimentally determined as described herein. The lower the IC50 value the higher the binding affinity. A compound of the present disclosure may be said to have “binding selectivity” if it has a higher binding affinity for one receptor compared to the other.
The membranes were prepared from CHO-K1 (Chinese hamster ovary) cells stably transfected with the human CB2 receptor (Cat.# ES-111-C; Perkin Elmer, Boston, Mass.). The cells were grown adherently and maintained in Ham's F12 medium containing 10% fetal bovine serum (FBS), penicillin, streptomycin and geneticin (G418) at 37° C. in a humid atmosphere of 5% CO2 following the manufacturer's instructions.
For membrane preparation the cells were washed with PBS and scraped off the plates in cold homogenization buffer (25 mM HEPES (pH 7.4), 2 mM EDTA) containing protease inhibitor cocktail (Sigma Cat.# P8340). The cell suspension was homogenized with a Pro-PK-01200D Polytron Homogenizer (Pro Scientific) and then centrifuged for 30 min at 120,000×g. The supernatant was discarded and the pellet was re-suspended in the homogenization buffer and stored at −80° C. until the time of use.
In this experiment, 3H radiolabeled CP 55,940, i.e. [3H]CP 55,940 (Perkin Elmer, Boston, Mass.), was used as a radioligand for the CB2 receptor to determine the binding affinity of compounds for the CB2 receptor (Scheme 7; above).
The competition binding experiments (single dose and dose-response) were performed by incubating 0.6 nM of [3H]CP55,940 (specific activity 101 Ci/mmol, Perkin Elmer) and different concentrations of compounds disclosed herein with membranes prepared as above from CHO-K1 cells expressing human CB2 receptor (1 μg of protein/well), 50 mM Tris-HCl (pH 7.4), 5 mM MgCl2, 1 mM CaCl2, and 2 mg/mL BSA.
For the single dose experiments, the compound stocks (usually 10 mM in DMSO) were diluted to working stocks in the binding buffer to give the final compound concentrations of 10 μM and 1 μM. For the dose-response experiments the test compounds were sequentially diluted to provide the desired concentration range for the IC50 determination. In each case the compounds were pre-incubated with the membrane for 20 min, before adding the radioligand.
After incubation with the radioligand for 60 min at 37° C., the incubation was terminated by rapid filtration of assay mixture through MultiScreen®HTS^+ 96-well filter plates (Millipore, Cat.# MSFCNXB), pre-soaked for 60 min with 50 mM Tris-HCl (pH 7.4) containing 0.33% polyethylenimine (PEI). The nonspecific binding (NSB) was determined in the presence of 10 μM unlabelled CP55,940. After drying the filter plate at 50° C. for at least 60 min, the filter-bound radioactivity was determined by scintillation spectrometry using the 1450 MicroBeta Plate Counter (Perkin Elmer, Boston, Mass.). From the dose-response experiments, the IC50 values were determined (see Table 1, CB2 IC50).

In assay [2] the target is T1, human CB1 receptor. Briefly: PathHunter β-arrestin functional assay, CB1 receptor, antagonist mode. The assay is classed as cell-based. From the text: (§1) In the PathHunter® β-Arrestin system from DiscoveRx (Eurofins, Fremont, Calif.), a small peptide, the ProLink™ (PK), is fused to the intracellular sequence of a GPCR target, and a complementing peptide, the enzyme acceptor (EA) fragment, is fused to β-arrestin. After binding to its specific ligand, the GPCR target recruits β-arrestin, forcing the complementation of the two β-galactosidase enzyme fragments (EA and PK) to produce a functional β-galactosidase enzyme. The enzyme activity, and thus the amount of ligand bound to the GPCR, is detected with a single addition of a reagent cocktail to lyse the cells and produce a chemiluminescent signal before being analyzed using a traditional plate reader.
(§2) PathHunter® CHO-K1 CNR1 β-Arrestin cells (DiscoverRx, cat. Number 93-0959C2) stably expressing CB1 receptor (CB1R) were grown in Ham's F12 medium containing 10% fetal bovine serum (FBS), 1% penicillin/streptomycin, 300 μg/mL Hygromycin B and 800 μg/mL geneticin (G418) and maintained in 37° C. incubators at 5% CO2. […]
(§3) The incubation was terminated by adding the detection reagent (19 parts of 1% CHAPS, 5 parts Emerald-II and 1 part Galacton-Star), equivalent to 50% of the assay volume to each wells. Plates were incubated for 1 hour in the dark at room temperature, followed by chemiluminescence detection using a microplate reader.
(§4) Data were analysed by generating nonlinear regression curves. […]

In assay [3] the target is T1, human CB1 receptor. Description: PathHunter β-arrestin functional assay, CB1 receptor, agonist mode. The assay is classed as cell-based. The settings on record: PathHunter CHO-K1 CNR1 β-Arrestin cells; normalized to CP55,940.
Text: as §1, §2, §3, §4

T1 sequence (P21554 whole entry): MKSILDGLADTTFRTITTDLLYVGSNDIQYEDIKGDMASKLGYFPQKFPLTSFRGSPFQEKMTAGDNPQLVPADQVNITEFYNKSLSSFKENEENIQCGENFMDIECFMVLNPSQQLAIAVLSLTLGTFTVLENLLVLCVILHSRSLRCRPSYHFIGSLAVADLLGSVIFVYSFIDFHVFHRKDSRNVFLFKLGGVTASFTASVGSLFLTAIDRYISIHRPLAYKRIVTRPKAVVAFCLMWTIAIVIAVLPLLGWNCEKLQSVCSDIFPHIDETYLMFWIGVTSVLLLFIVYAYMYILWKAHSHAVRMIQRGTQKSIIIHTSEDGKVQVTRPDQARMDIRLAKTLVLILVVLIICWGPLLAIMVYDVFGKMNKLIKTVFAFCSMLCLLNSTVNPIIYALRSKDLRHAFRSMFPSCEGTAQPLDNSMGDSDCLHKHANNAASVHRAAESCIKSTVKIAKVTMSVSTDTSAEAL
T2 sequence (P34972 whole entry): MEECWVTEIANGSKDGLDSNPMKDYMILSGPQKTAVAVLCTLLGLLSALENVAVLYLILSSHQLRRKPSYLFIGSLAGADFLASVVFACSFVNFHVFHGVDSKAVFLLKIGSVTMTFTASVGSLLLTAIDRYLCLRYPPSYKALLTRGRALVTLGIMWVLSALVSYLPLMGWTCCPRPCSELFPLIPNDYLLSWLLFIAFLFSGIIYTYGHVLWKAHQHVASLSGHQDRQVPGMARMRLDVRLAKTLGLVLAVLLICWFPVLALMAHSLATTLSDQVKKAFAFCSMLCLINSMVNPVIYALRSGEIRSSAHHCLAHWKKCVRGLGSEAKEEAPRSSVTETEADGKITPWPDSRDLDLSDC

A word on the IC50: it is the concentration needed to halve the response being measured. A low value points to higher potency. Take `CCCCCc1cc2c(c(O)c1-c1ccsc1)[C@@H]1C=C(C)CC[C@H]1C(C)(C)O2` [Compound 17b, 6,6,9-trimethyl-3-pentyl-2-(thiophen-3-yl)-6a,7,8,10a-tetrahydro-6H-benzo[c]chromen-1-ol]: the IC50 was 100 to 490 nM at human CB1 receptor [1] and < 100 nM at human CB2 receptor. On human CB2 receptor, the “Selectivity CB2” value came to 3.43 fold.

For the compound `CCCCCc1cc2c(c(O)c1-c1cc3ccccc3s1)[C@@H]1C=C(C)CC[C@H]1C(C)(C)O2` [Compound 36b, 2-(benzothiophen-2-yl)-6,6,9-trimethyl-3-pentyl-6a,7,8,10a-tetrahydrobenzo[c]chromen-1-ol], the half-inhibitory concentration (IC50) is ~3000 nM against human CB1 receptor [2], > 1000 nM on human CB1 receptor [1] and 100 to 490 nM on human CB2 receptor. Moreover, at human CB2 receptor, the “Selectivity CB2” value was determined as 5.67 fold. Moreover, the “activity towards the human CB1 receptor, agonist mode” value at human CB1 receptor [3] is recorded as “minimal to no activity”.

For `CCCCCc1cc2c(c(O)c1-c1cn[nH]c1)[C@@H]1C=C(C)CC[C@H]1C(C)(C)O2` [Compound 35b, 6,6,9-trimethyl-3-pentyl-2-(1H-pyrazol-4-yl)-6a,7,8,10a-tetrahydro-6H-benzo[c]chromen-1-ol], the half-inhibitory concentration (IC50) at human CB1 receptor [1] is > 1000 nM. Also, on human CB2 receptor, the half-maximal inhibitory concentration (IC50) fell in the range of 500 to 990 nM and the “Selectivity CB2” value is given as 2.64 fold.

On human CB1 receptor [1], `CCCCCc1cc2c(c(O)c1-c1ccncc1)[C@@H]1C=C(C)CC[C@H]1C(C)(C)O2` [Compound 14b, 6,6,9-trimethyl-3-pentyl-2-(pyridin-4-yl)-6a,7,8,10a-tetrahydro-6H-benzo[c]chromen-1-ol] had a half-maximal inhibitory concentration (IC50) of 100 to 490 nM. In addition, at human CB2 receptor, the IC50 fell in the range of 100 to 490 nM and the “Selectivity CB2” value amounted to 1.77 fold.

With `CCCCCc1cc2c(c(O)c1-c1ccnn1C)[C@@H]1C=C(C)CC[C@H]1C(C)(C)O2` [Compound 33b, 6,6,9-trimethyl-2-(1-methyl-1H-pyrazol-5-yl)-3-pentyl-6a,7,8,10a-tetrahydro-6H-benzo[c]chromen-1-ol], at human CB1 receptor [1], the half-inhibitory concentration (IC50) was 100 to 490 nM. At human CB2 receptor, the IC50 was 100 to 490 nM and the “Selectivity CB2” value was found to be 1.61 fold.

Take `CCCCCc1cc2c(c(O)c1-c1cncs1)[C@@H]1C=C(C)CC[C@H]1C(C)(C)O2` [Compound 18b]: at human CB1 receptor [1], the IC50 was > 1000 nM and the “Selectivity CB1” value is 1.00 fold. At human CB2 receptor, the concentration for half-maximal inhibition (IC50) is > 1000 nM and the “Selectivity CB2” value is recorded as 1.00 fold.

As for `CCCCCc1cc2c(c(O)c1-c1ccco1)[C@@H]1C=C(C)CC[C@H]1C(C)(C)O2` [Compound 15b, 2-(furan-2-yl)-6,6,9-trimethyl-3-pentyl-6a,7,8,10a-tetrahydro-6H-benzo[c]chromen-1-ol], on human CB1 receptor [1], the IC50 was < 100 nM and the “Selectivity CB1” value worked out at 1.00 fold. On human CB2 receptor, the half-maximal inhibitory concentration (IC50) was < 100 nM and the “Selectivity CB2” value was 1.00 fold.

Consider `CCCCCc1cc2c(c(O)c1-c1cccnc1)[C@@H]1C=C(C)CC[C@H]1C(C)(C)O2` [Compound 12b, 6,6,9-trimethyl-3-pentyl-2-(pyridin-3-yl)-6a,7,8,10a-tetrahydro-6H-benzo[c]chromen-1-ol], for which, on human CB1 receptor [1], the half-inhibitory concentration (IC50) lay in the range of 500 to 990 nM. Besides, at human CB2 receptor, the half-inhibitory concentration (IC50) lay within 500 to 990 nM and the “Selectivity CB2” value came out at 1.57 fold. Further, the “activity towards the human CB1 receptor, agonist mode” value on human CB1 receptor [3] is given as “minimal to no activity”.

For `CCCCCc1cc2c(c(O)c1-c1cc3ccccc3o1)[C@@H]1C=C(C)CC[C@H]1C(C)(C)O2` [Compound 34b, 2-(benzofuran-2-yl)-6,6,9-trimethyl-3-pentyl-6a,7,8,10a-tetrahydro-6H-benzo[c]chromen-1-ol], the IC50 at human CB1 receptor [1] lay within 500 to 990 nM. Moreover, at human CB2 receptor, the IC50 fell in the range of 100 to 490 nM and the “Selectivity CB2” value is recorded as 4.41 fold.

Consider `CCCCCc1cc2c(c(O)c1-c1cncnc1)[C@@H]1C=C(C)CC[C@H]1C(C)(C)O2` [Compound 13b, 6,6,9-trimethyl-3-pentyl-2-(pyrimidin-5-yl)-6a,7,8,10a-tetrahydro-6H-benzo [c] chromen-1-ol], for which the half-inhibitory concentration (IC50) was > 1000 nM on human CB1 receptor [1] and 500 to 990 nM on human CB2 receptor. Besides, the “Selectivity CB2” value at human CB2 receptor is reported as 5.00 fold.
